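Tested at 5 concentrations; 48 h exposure; 96-well plates; endpoints linearly interpolated, else capped at highest concentration. TGI: total growth inhibition.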
Columns and labels:
Test in all cases: NCI anticancer screen, dose series, 48 h
SF-539 CNS = test system: SF-539 CNS
SK-MEL-2 melanoma = test system: SK-MEL-2 melanoma
TK-10 renal = test system: TK-10 renal
SNB-19 CNS = test system: SNB-19 CNS
KM12 colon = test system: KM12 colon
SK-OV-3 ovarian = test system: SK-OV-3 ovarian
SR leukemia = test system: SR leukemia
HCT-15 colon = test system: HCT-15 colon
MDA-MB-231 breast = test system: MDA-MB-231 breast
MDA-N = test system: MDA-N
K-562 leukemia = test system: K-562 leukemia
COLO 205 colon = test system: COLO 205 colon
SW-620 colon = test system: SW-620 colon
LOX IMVI melanoma = test system: LOX IMVI melanoma
PC-3 prostate = test system: PC-3 prostate
ACHN renal = test system: ACHN renal
UACC-257 melanoma = test system: UACC-257 melanoma
HOP-62 NSCLC = test system: HOP-62 NSCLC
A549 NSCLC = test system: A549 NSCLC
M14 melanoma = test system: M14 melanoma
NCI-H23 lung = test system: NCI-H23 lung
SK-MEL-28 melanoma = test system: SK-MEL-28 melanoma
NCI-H522 lung = test system: NCI-H522 lung
SK-MEL-5 melanoma = test system: SK-MEL-5 melanoma
CCRF-CEM leukemia = test system: CCRF-CEM leukemia
MDA-MB-435 = test system: MDA-MB-435
DU-145 prostate = test system: DU-145 prostate
MALME-3M melanoma = test system: MALME-3M melanoma
NCI-H226 lung = test system: NCI-H226 lung
SF-295 CNS = test system: SF-295 CNS
OVCAR-3 ovarian = test system: OVCAR-3 ovarian
OVCAR-8 ovarian = test system: OVCAR-8 ovarian
NCI/ADR-RES ovarian = test system: NCI/ADR-RES ovarian
EKVX NSCLC = test system: EKVX NSCLC
IGROV1 ovarian = test system: IGROV1 ovarian
NCI-H460 lung = test system: NCI-H460 lung
HL-60(TB) leukemia = test system: HL-60(TB) leukemia
CAKI-1 renal = test system: CAKI-1 renal
HS 578T breast = test system: HS 578T breast
HCT-116 colon = test system: HCT-116 colon
HOP-92 NSCLC = test system: HOP-92 NSCLC
RPMI-8226 leukemia = test system: RPMI-8226 leukemia
A498 renal = test system: A498 renal
MOLT-4 leukemia = test system: MOLT-4 leukemia
SN12C renal = test system: SN12C renal
U251 CNS = test system: U251 CNS
RXF 393 renal = test system: RXF 393 renal
HT29 colon = test system: HT29 colon
OVCAR-5 ovarian = test system: OVCAR-5 ovarian
OVCAR-4 ovarian = test system: OVCAR-4 ovarian
786-0 renal = test system: 786-0 renal
BT-549 breast = test system: BT-549 breast
SF-268 CNS = test system: SF-268 CNS
MCF7 breast = test system: MCF7 breast
UO-31 renal = test system: UO-31 renal
HCC-2998 colon = test system: HCC-2998 colon
UACC-62 melanoma = test system: UACC-62 melanoma

With `CN(C)CCCNC(=S)S` the TGI (SF-539 CNS) was over 100 µM, the TGI (SK-MEL-2 melanoma) was over 100 µM and the TGI (TK-10 renal) was over 100 µM. It also gave a TGI (SNB-19 CNS) of over 100 µM, a TGI (KM12 colon) of over 100 µM and a TGI (SK-OV-3 ovarian) of over 100 µM. The TGI (SR leukemia) was over 100 µM, the TGI (HCT-15 colon) was over 100 µM and the TGI (MDA-MB-231 breast) was over 100 µM. It also gave a TGI (MDA-N) of over 100 µM, a TGI (K-562 leukemia) of over 100 µM and a TGI (COLO 205 colon) of over 100 µM. It also gave a TGI (SW-620 colon) of over 100 µM, a TGI (LOX IMVI melanoma) of over 100 µM and a TGI (PC-3 prostate) of over 100 µM. For the same compound, the TGI (ACHN renal) was over 100 µM, the TGI (UACC-257 melanoma) was over 100 µM and the TGI (HOP-62 NSCLC) was over 100 µM. The TGI (A549 NSCLC) was over 100 µM, the TGI (M14 melanoma) was over 100 µM and the TGI (NCI-H23 lung) was over 100 µM. It also gave a TGI (SK-MEL-28 melanoma) of over 100 µM, a TGI (NCI-H522 lung) of over 100 µM and a TGI (SK-MEL-5 melanoma) of over 100 µM. It also gave a TGI (CCRF-CEM leukemia) of over 100 µM, a TGI (MDA-MB-435) of over 100 µM and a TGI (DU-145 prostate) of over 100 µM. For the same compound, the TGI (MALME-3M melanoma) was over 100 µM, the TGI (NCI-H226 lung) was over 100 µM and the TGI (SF-295 CNS) was over 100 µM. For the same compound, the TGI (OVCAR-3 ovarian) was over 100 µM, the TGI (OVCAR-8 ovarian) was over 100 µM and the TGI (NCI/ADR-RES ovarian) was over 100 µM. It also gave a TGI (EKVX NSCLC) of over 100 µM, a TGI (IGROV1 ovarian) of over 100 µM and a TGI (NCI-H460 lung) of over 100 µM. For the same compound, the TGI (HL-60(TB) leukemia) was over 100 µM, the TGI (CAKI-1 renal) was over 100 µM and the TGI (HS 578T breast) was over 100 µM. It also gave a TGI (HCT-116 colon) of over 100 µM, a TGI (HOP-92 NSCLC) of over 100 µM and a TGI (RPMI-8226 leukemia) of over 100 µM. The TGI (A498 renal) was over 100 µM, the TGI (MOLT-4 leukemia) was over 100 µM and the TGI (SN12C renal) was over 100 µM. It also gave a TGI (U251 CNS) of over 100 µM, a TGI (RXF 393 renal) of over 100 µM and a TGI (HT29 colon) of over 100 µM. For the same compound, the TGI (OVCAR-5 ovarian) was over 100 µM, the TGI (OVCAR-4 ovarian) was over 100 µM and the TGI (786-0 renal) was over 100 µM. The TGI (BT-549 breast) was over 100 µM, the TGI (SF-268 CNS) was over 100 µM and the TGI (MCF7 breast) was over 100 µM.

`COc1nc(SC)nc2c1C(O)n1c(nc3ccccc31)S2` (configuration not stated) was tested, and the TGI (SK-MEL-2 melanoma) was over 100 µM, the TGI (TK-10 renal) was 97.7 µM and the TGI (SNB-19 CNS) was over 100 µM. For the same compound, the TGI (UO-31 renal) was 16.8 µM, the TGI (KM12 colon) was over 100 µM and the TGI (SK-OV-3 ovarian) was 67.2 µM. It also gave a TGI (SR leukemia) of over 100 µM, a TGI (HCT-15 colon) of over 100 µM and a TGI (MDA-MB-231 breast) of over 100 µM. It also gave a TGI (MDA-N) of over 100 µM, a TGI (K-562 leukemia) of over 100 µM and a TGI (SW-620 colon) of 47.7 µM. The TGI (LOX IMVI melanoma) was over 100 µM, the TGI (PC-3 prostate) was over 100 µM and the TGI (ACHN renal) was 39.9 µM. It also gave a TGI (UACC-257 melanoma) of over 100 µM, a TGI (HOP-62 NSCLC) of 37.4 µM and a TGI (A549 NSCLC) of over 100 µM. For the same compound, the TGI (M14 melanoma) was over 100 µM, the TGI (NCI-H23 lung) was 95.4 µM and the TGI (SK-MEL-28 melanoma) was over 100 µM. It also gave a TGI (NCI-H522 lung) of 69.1 µM, a TGI (CCRF-CEM leukemia) of 22.3 µM and a TGI (MDA-MB-435) of over 100 µM. It also gave a TGI (DU-145 prostate) of over 100 µM, a TGI (MALME-3M melanoma) of over 100 µM and a TGI (SF-295 CNS) of 59.6 µM. It also gave a TGI (OVCAR-3 ovarian) of 85.7 µM, a TGI (OVCAR-8 ovarian) of 80.9 µM and a TGI (HCC-2998 colon) of over 100 µM. For the same compound, the TGI (NCI/ADR-RES ovarian) was 94.9 µM, the TGI (EKVX NSCLC) was over 100 µM and the TGI (IGROV1 ovarian) was over 100 µM. It also gave a TGI (NCI-H460 lung) of over 100 µM, a TGI (HL-60(TB) leukemia) of 60.5 µM and a TGI (CAKI-1 renal) of over 100 µM. The TGI (HS 578T breast) was 50.7 µM, the TGI (HCT-116 colon) was 30.4 µM and the TGI (HOP-92 NSCLC) was 61.9 µM. It also gave a TGI (RPMI-8226 leukemia) of over 100 µM, a TGI (UACC-62 melanoma) of 44.7 µM and a TGI (A498 renal) of 39.4 µM. It also gave a TGI (MOLT-4 leukemia) of over 100 µM, a TGI (SN12C renal) of over 100 µM and a TGI (U251 CNS) of 96.8 µM. For the same compound, the TGI (HT29 colon) was over 100 µM, the TGI (OVCAR-5 ovarian) was over 100 µM and the TGI (OVCAR-4 ovarian) was 44.4 µM. It also gave a TGI (786-0 renal) of 24.6 µM, a TGI (BT-549 breast) of over 100 µM and a TGI (SF-268 CNS) of over 100 µM. It also gave a TGI (MCF7 breast) of 91.2 µM.

`NC(Cc1ccc(OCc2ccccc2)cn1)C(=O)OCc1ccccc1` (configuration not stated) was tested, and the TGI (SF-539 CNS) was over 100 µM, the TGI (TK-10 renal) was over 100 µM and the TGI (SNB-19 CNS) was over 100 µM. It also gave a TGI (UO-31 renal) of over 100 µM, a TGI (KM12 colon) of over 100 µM and a TGI (SR leukemia) of over 100 µM. The TGI (HCT-15 colon) was over 100 µM, the TGI (MDA-MB-231 breast) was over 100 µM and the TGI (MDA-N) was over 100 µM. For the same compound, the TGI (K-562 leukemia) was over 100 µM, the TGI (COLO 205 colon) was over 100 µM and the TGI (SW-620 colon) was over 100 µM. It also gave a TGI (LOX IMVI melanoma) of over 100 µM, a TGI (PC-3 prostate) of over 100 µM and a TGI (ACHN renal) of over 100 µM. For the same compound, the TGI (UACC-257 melanoma) was over 100 µM, the TGI (HOP-62 NSCLC) was over 100 µM and the TGI (A549 NSCLC) was over 100 µM. For the same compound, the TGI (NCI-H23 lung) was over 100 µM, the TGI (SK-MEL-28 melanoma) was over 100 µM and the TGI (NCI-H522 lung) was over 100 µM. The TGI (SK-MEL-5 melanoma) was over 100 µM, the TGI (CCRF-CEM leukemia) was over 100 µM and the TGI (MDA-MB-435) was over 100 µM. It also gave a TGI (DU-145 prostate) of over 100 µM, a TGI (MALME-3M melanoma) of over 100 µM and a TGI (NCI-H226 lung) of over 100 µM. The TGI (SF-295 CNS) was over 100 µM, the TGI (OVCAR-3 ovarian) was over 100 µM and the TGI (OVCAR-8 ovarian) was over 100 µM. For the same compound, the TGI (HCC-2998 colon) was over 100 µM, the TGI (NCI/ADR-RES ovarian) was over 100 µM and the TGI (EKVX NSCLC) was over 100 µM. The TGI (IGROV1 ovarian) was over 100 µM, the TGI (NCI-H460 lung) was over 100 µM and the TGI (HL-60(TB) leukemia) was over 100 µM. For the same compound, the TGI (CAKI-1 renal) was over 100 µM, the TGI (HS 578T breast) was over 100 µM and the TGI (HCT-116 colon) was over 100 µM. The TGI (HOP-92 NSCLC) was over 100 µM, the TGI (RPMI-8226 leukemia) was over 100 µM and the TGI (A498 renal) was over 100 µM. The TGI (SN12C renal) was over 100 µM, the TGI (U251 CNS) was over 100 µM and the TGI (RXF 393 renal) was over 100 µM. It also gave a TGI (HT29 colon) of over 100 µM, a TGI (OVCAR-5 ovarian) of over 100 µM and a TGI (OVCAR-4 ovarian) of over 100 µM. It also gave a TGI (786-0 renal) of over 100 µM, a TGI (BT-549 breast) of over 100 µM and a TGI (MCF7 breast) of over 100 µM.
